Data taken from patent US9156790B2, “Anticancer P21-activated kinase inhibitors” (Ohio State Innovation Foundation, priority 2013, dated 2015).
Like-named read-outs stand apart in the source and are kept apart here.

Tests used:
PKA = PKA (Homo sapiens, UniProt P17612); assay: Kinase profiling panel: PKA; type: biochemical; settings: 5 μM compound; average of triplicate
Experimental: (§1) To further probe the selectivity of the compounds 4 and 15, they were subjected for kinase profiling service for screening against a panel of other kinases selected based on the kinase tree at 5 μM concentration, at or above the IC50 for the two compounds versus PAK in both in vitro and cell-based assays. […] PAK1 was not available for testing using this system thus it was not possible to compare directly in this assay system.

GSK3β = GSK3β (Homo sapiens, UniProt P49841); assay: Kinase profiling panel: GSK3β; type: biochemical; settings: 5 μM compound; average of triplicate
Experimental: as §1

PAK2 = PAK2 (Homo sapiens, UniProt Q13177); assay: Kinase profiling panel: PAK2; type: biochemical; settings: 5 μM compound; average of triplicate
Experimental: as §1

SGK = target: T1, SGK (Homo sapiens, UniProt O00141); assay: Kinase profiling panel: SGK; type: biochemical; settings: 5 μM compound; for % activity vs. DMSO, SGK: average of triplicate
T1 sequence (O00141 1-431): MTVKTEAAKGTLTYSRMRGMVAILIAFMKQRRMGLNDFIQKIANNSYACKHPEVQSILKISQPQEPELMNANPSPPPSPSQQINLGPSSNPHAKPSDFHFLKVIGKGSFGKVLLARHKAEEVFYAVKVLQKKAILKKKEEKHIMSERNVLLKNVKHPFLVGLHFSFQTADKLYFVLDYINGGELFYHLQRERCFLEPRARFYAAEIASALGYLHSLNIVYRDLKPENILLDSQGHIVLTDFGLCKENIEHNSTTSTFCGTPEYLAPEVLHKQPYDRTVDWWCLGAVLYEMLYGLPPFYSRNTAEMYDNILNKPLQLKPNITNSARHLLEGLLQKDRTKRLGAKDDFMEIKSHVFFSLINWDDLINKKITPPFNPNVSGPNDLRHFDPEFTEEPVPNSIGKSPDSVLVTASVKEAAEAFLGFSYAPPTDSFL
Experimental: as §1

other PAK kinases = assay: Kinase profiling panel: other PAK kinases (summary statement); type: biochemical; settings: 5 μM compound
Experimental: as §1

BCPAP cells = assay: Boyden chamber migration assay, BCPAP; type: cell-based, Human; settings: 2.5 μM and 5.0 μM, 12 hours, P<0.05 versus DMSO
Experimental: Cells were grown in media containing 10% FBS. After 24 hours, the medium was aspirated, and media containing 1% FBS was added for 24 hours. The cells were trypsinized for 2 to 5 minutes, washed, and resuspended in media containing 1% FBS. The cell concentration was calculated by hemocytometer. Four hundred μl 1% FBS medium was added into 24-well plates, and a Boyden chamber (8 μm pore) was inserted into each well. Cells were added to each insert, and were allowed to attach in an incubator at 37° C. at 5% CO2 for 2 hours. The cells were then exposed to various concentrations of drugs or control diluent for 3 hours. The inserts were switched to a new well containing media containing 10% FBS, and the chamber was incubated for 12 or 24 hours depending on the migration rate of the cell line. The cells on and under the Boyden chamber membrane were fixed with 3.7% formaldehyde containing 0.05% crystal violet for 15 min after washing cells with PBS. The chambers were washed with distilled water. […] The Q-tips containing the scraped cells and the Boyden chamber containing the non-migrated cells were separately incubated in 80% methanol, shaken at 500 g for 30 minutes, and the extracted dye was measured at 570 nm. Migration was quantified as the ratio of the migrated cells over the total cells (non-migrated plus […]). […]

ERK phosphorylation = assay: Western blot, ERK phosphorylation in thyroid cancer cells; type: cell-based, Human; settings: 6 hours
Experimental: Protein isolation and Western blot were performed as previously described. Ringel et al., Cancer research 61:6105-6111 (2001). 25 μg of total cell lysates were loaded into 4-12% SDS-PAGE, electrophoresed, and transferred to nitrocellulose membranes for immunoblotting. Primary antibodies against Akt (#9272), phospho-Akt (Thr308) (#2965), p44/42 MAPK (Erk1/2) (#9107), phospho-p44/42 MAPK (Erk1/2) (Thr202/Tyr204) (#4377) and GAPDH (#2118) were obtained from Cell Signaling Technology (Danvers, Mass., USA). Antibody against Vimentin (V6630) and phospho-Ser55 Vimentin were from Sigma-Aldrich, Inc. (St. Louis, Mo.) and MBL Co. (Nagoya, Japan), respectively. Antibodies against total and phosphorylated S6 were from Cell Signaling Technology®.
The dose-dependency of compounds 4 and 15 was next assessed (FIG. 4). […] Due to the important role that ERK activation plays in thyroid cancer, and its signaling activation by thyroid oncogenes, the effects of the compounds on ERK phosphorylation was also assessed.

Met = Met (Homo sapiens, UniProt P08581); assay: Kinase profiling panel: Met; type: biochemical; settings: 5 μM compound; average of triplicate
Experimental: as §1

PAK5 = PAK5 (Homo sapiens, UniProt Q9P286); assay: Kinase profiling panel: PAK5; type: biochemical; settings: 5 μM compound; average of triplicate
Experimental: as §1

PKBβ = PKBβ (Homo sapiens, UniProt P31751); assay: Kinase profiling panel: PKBβ; type: biochemical; settings: read-out: % activity vs. DMSO, PKBβ
Experimental: as §1

Chain of PAK5 (Q9P286 whole entry): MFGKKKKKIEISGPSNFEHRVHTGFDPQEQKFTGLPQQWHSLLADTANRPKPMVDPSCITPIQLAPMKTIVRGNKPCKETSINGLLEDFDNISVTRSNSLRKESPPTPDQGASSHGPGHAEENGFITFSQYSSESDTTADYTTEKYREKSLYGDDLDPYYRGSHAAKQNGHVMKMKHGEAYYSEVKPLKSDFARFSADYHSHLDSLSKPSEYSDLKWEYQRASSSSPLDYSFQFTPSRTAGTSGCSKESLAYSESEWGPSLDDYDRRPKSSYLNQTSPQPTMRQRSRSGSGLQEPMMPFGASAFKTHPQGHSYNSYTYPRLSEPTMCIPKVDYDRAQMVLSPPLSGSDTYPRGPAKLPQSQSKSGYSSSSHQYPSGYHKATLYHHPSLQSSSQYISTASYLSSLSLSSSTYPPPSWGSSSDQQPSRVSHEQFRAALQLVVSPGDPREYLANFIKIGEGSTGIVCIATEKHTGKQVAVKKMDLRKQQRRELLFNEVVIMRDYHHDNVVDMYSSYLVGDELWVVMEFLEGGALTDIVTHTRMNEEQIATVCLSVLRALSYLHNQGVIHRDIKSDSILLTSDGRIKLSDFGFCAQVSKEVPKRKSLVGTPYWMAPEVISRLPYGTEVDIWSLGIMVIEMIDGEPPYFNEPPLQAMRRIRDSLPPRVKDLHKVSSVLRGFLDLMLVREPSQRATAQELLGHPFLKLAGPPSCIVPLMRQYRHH
Chain of Met (P08581 25-1390): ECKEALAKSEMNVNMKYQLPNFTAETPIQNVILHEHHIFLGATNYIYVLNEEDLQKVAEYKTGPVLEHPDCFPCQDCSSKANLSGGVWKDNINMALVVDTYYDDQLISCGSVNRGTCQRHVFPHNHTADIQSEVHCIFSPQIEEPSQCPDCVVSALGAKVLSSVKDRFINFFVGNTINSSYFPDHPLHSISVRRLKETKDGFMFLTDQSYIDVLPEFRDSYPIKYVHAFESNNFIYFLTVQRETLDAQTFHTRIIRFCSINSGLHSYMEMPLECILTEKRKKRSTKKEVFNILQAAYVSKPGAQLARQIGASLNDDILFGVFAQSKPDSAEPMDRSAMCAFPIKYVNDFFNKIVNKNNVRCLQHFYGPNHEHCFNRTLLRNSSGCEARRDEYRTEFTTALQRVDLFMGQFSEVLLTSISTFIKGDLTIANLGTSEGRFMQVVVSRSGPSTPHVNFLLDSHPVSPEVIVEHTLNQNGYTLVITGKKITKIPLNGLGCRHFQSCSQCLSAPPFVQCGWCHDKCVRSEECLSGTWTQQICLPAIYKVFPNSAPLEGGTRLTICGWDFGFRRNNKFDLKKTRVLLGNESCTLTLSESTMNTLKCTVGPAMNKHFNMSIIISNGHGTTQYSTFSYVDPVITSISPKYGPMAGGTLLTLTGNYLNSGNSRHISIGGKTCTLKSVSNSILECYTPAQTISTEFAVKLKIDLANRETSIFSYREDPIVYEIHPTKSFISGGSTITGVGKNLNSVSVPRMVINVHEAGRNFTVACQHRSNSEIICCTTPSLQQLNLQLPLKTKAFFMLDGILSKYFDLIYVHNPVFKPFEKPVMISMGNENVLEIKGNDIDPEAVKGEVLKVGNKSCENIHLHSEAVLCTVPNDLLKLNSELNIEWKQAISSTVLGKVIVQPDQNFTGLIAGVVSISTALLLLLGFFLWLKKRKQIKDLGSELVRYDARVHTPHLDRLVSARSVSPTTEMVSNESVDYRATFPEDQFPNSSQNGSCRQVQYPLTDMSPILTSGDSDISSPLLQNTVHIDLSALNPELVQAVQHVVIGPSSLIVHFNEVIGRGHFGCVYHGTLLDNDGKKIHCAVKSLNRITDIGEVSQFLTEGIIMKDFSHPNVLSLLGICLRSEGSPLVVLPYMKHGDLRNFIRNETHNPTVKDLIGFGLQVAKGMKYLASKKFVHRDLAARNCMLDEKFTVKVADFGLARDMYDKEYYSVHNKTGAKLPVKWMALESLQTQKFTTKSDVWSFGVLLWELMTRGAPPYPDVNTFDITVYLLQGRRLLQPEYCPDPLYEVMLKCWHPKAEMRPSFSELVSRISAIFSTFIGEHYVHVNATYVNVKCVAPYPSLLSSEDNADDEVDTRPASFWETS
Chain of GSK3β (P49841 whole entry, species assumed): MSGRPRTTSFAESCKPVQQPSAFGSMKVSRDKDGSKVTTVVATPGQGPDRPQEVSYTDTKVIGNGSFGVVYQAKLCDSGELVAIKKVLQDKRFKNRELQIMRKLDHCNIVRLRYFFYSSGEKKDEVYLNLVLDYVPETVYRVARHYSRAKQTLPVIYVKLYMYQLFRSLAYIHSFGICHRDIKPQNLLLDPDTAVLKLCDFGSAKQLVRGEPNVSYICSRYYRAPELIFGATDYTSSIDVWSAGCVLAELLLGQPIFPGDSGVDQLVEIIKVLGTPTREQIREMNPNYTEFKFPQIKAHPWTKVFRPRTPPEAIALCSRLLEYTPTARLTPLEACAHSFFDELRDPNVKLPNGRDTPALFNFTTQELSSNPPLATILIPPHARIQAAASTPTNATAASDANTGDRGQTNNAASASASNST
Chain of PAK2 (Q13177 whole entry, species assumed): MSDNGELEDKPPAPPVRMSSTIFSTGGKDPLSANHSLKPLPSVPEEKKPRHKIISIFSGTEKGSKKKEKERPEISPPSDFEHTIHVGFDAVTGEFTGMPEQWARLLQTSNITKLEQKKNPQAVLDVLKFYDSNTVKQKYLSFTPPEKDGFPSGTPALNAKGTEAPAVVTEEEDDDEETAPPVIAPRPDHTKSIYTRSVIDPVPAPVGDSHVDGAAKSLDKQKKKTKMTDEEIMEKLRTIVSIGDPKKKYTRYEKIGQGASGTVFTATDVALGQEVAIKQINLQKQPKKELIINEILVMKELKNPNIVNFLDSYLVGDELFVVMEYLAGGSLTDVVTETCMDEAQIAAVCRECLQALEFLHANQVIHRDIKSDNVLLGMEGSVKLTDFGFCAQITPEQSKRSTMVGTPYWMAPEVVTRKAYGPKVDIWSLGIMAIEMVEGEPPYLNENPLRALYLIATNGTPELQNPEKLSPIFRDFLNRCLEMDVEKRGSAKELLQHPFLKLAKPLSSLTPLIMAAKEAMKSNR
Chain of PKBβ (P31751 whole entry, species assumed): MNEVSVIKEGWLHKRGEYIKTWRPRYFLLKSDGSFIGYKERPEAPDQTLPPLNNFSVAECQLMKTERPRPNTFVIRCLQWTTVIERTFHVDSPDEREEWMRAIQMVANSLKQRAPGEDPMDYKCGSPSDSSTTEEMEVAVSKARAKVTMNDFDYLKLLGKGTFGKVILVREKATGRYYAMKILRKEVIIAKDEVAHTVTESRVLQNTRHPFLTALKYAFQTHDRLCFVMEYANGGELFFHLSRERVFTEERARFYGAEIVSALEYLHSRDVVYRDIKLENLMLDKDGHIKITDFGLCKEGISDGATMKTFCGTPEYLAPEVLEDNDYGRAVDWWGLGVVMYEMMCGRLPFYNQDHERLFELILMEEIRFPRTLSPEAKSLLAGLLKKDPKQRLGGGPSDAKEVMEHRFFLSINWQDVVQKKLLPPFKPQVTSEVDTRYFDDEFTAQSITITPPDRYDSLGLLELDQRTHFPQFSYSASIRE

SMILES: CC(C)NC(=O)c1cc(-c2ccc3ccc4ccccc4c3c2)n(-c2ccc(NC(=O)CN)cc2)n1 [Compound 15, 1-(4-(2-Aminoacetamido)phenyl)-N-isopropyl-5-(phenanthren-3-yl)-1H-pyrazole-3-carboxamide]
- % activity vs. DMSO, PKA (PKA): 119%
- % activity vs. DMSO, GSK3β (GSK3β): 137%
- % activity vs. DMSO, PAK2 (PAK2): 81%
- % activity vs. DMSO, SGK (SGK): 64%
- Activity versus other PAK kinases (other PAK kinases): did not have activity versus other PAK kinases
- Migration of BCPAP cells (BCPAP cells): inhibited migration
- ERK phosphorylation, BCPAP cells (ERK phosphorylation; 2.5 μM, BCPAP cells (BRAF V600E)): inhibited ERK phosphorylation
- ERK phosphorylation, other two cell lines (ERK phosphorylation; FTC133 and TPC1 cells): at higher concentrations
- % activity vs. DMSO, Met (Met): 77%
- % activity vs. DMSO, PAK5 (PAK5): 104%
- remaining activity at 5 µM (PKBβ): 84%

SMILES: NCCC(=O)Nc1ccc(-n2nc(C(F)(F)F)cc2-c2ccc3ccc4ccccc4c3c2)cc1 [Compound 4, 3-amino-N-(4-(5-(phenanthren-3-yl)-3-(trifluoromethyl)-1H-pyrazol-1-yl)phenyl)-propanamide]
- % activity vs. DMSO, PKA (PKA): 110%
- % activity vs. DMSO, GSK3β (GSK3β): 170%
- % activity vs. DMSO, PAK2 (PAK2): 70%
- inhibition at 5 µM (SGK): > 50%
- % activity vs. DMSO, SGK (SGK): 27%
- Activity versus other PAK kinases (other PAK kinases): did not have activity versus other PAK kinases
- Migration of BCPAP cells (BCPAP cells): inhibited migration
- ERK phosphorylation, all three cell lines (ERK phosphorylation; dose-response, BCPAP, FTC133 and TPC1 cells): no demonstrable effects on ERK phosphorylation
- % activity vs. DMSO, Met (Met): 89%
- % activity vs. DMSO, PAK5 (PAK5): 114%
- remaining activity at 5 µM (PKBβ; 5 μM compound, average of triplicate): 76%
